pIC50: −log10 of the molar value. Where a SMILES comes first, the peptide text is derived from it. Bridges are numbered along the chain shown (N, C = ends). [ ]: non-standard residue; d: D form. The star is where a group is joined. X1 = O=C(O)CCCCCCCCCCCCCCCCC(=O)N[C@@H](CCC(=O)NCCOCCOCCOCCOCCOCCOCCOCCOCCOCCOCCOCCn1cc(C*)nn1)C(=O)O; Bip = N[C@@H](Cc1ccc(-c2ccccc2)cc1)C(=O)O; Phe(3-Me) = Cc1cccc(C[C@H](N)C(=O)O)c1; Cha = N[C@@H](CC1CCCCC1)C(=O)O; Carboxymethyl = O=C(O)C*; Orn = NCCC[C@H](N)C(=O)O; Dab = NCC[C@H](N)C(=O)O; Dap = NC[C@H](N)C(=O)O

In the experiment the target is T1, human PD-1 (Jurkat-PD-1 cells; binding of PE-labeled human PD-L1-Ig) (Homo sapiens, UniProt Q15116).
T1 construct: expressed in transfected cells; host or cells: Jurkat (Jurkat-PD-1 / Jurkat-hPD-1)
T1 sequence (Q15116 25-288): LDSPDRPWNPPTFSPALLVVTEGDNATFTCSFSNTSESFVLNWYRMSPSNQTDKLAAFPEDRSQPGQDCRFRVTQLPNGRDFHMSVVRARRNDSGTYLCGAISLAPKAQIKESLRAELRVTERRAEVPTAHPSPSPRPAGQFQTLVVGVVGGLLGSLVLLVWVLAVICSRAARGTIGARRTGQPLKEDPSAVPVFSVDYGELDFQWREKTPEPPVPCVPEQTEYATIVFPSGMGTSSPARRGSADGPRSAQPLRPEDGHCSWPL
In words: Jurkat-PD-1 Cell Binding High-Content Screening Assay. To be noted: Jurkat cell line over-expressing human PD-1; compound 2 h at 37° C., then PE-labeled PD-L1-Ig 20 nM final, 1 hour; read-out: Jurkat hPD1 PDL1 IC50. The method, then:
The ability of the compounds of formula (I) to bind to PD-1 was investigated using a Jurkat-PD-1 Cell Binding High-Content Screening Assay.
Phycoerythrin (PE) was covalently linked to the Ig epitope tag of human PD-L1-Ig and fluorescently-labeled PD-L1-Ig was used for binding studies with a Jurkat cell line over-expressing human PD-1 (Jurkat-PD-1). Briefly, 8×10^3 Jurkat-hPD-1 cells were seeded into 384 well plates in 20 μl of DIVEM supplemented with 10% fetal calf serum. 100 nl of compound was added to cells followed by incubation at 37° C. for 2 h. Then, 5 μl of PE-labeled PD-L1-Ig (20 nM final), diluted in DiVEM supplemented with 10 fetal calf serum. After 1 hour incubation, cells were fixed with […] in dPBS containing 10 µg/mL Hoechst 33342 and then washed 3× in 100 μl dPB S. Data was collected and processed using a Cell Insight NXT High Content Imager and associated software.
In general, pIC50 refers to −log10 of the IC50, conventionally taken in molar units. Regarding `Cc1cccc(C[C@@H]2NC(=O)[C@H](CC(=O)O)NC(=O)[C@H](Cc3ccc(OCC(=O)O)cc3)NC(=O)[C@H](CN)NC(=O)CSC[C@@H](C(=O)N[C@@H](CCN)C(N)=O)NC(=O)[C@H](CCC(=O)O)NC(=O)[C@H](C(C)C)NC(=O)[C@H](CC3CCCCC3)NC(=O)[C@H](CCN)NC(=O)[C@@H](CC(C)C)NC(=O)[C@H](CCCN)NC(=O)[C@H](Cc3ccc(OCc4cn(CCOCCOCCOCCOCCOCCOCCOCCOCCOCCOCCOCCNC(=O)CC[C@H](NC(=O)CCCCCCCCCCCCCCCCC(=O)O)C(=O)O)nn4)cc3)NC(=O)[C@H](Cc3ccc(-c4ccccc4)cc3)NC(=O)[C@H](Cc3ccc(OCC(=O)O)cc3)NC2=O)c1` [Compound 1001] ({CH2CO}-[Dap]Y(Carboxymethyl)D[Phe(3-Me)]Y(Carboxymethyl)[Bip]Y(X1)[Orn][dL][Dab][Cha]VEC[Dab]-NH2; thioether N-14 (inferred)), the pIC50 was 6.80.

With `Cc1cccc(C[C@@H]2NC(=O)[C@H](CC(=O)O)NC(=O)[C@H](Cc3ccc(OCC(=O)O)cc3)NC(=O)[C@H](CCCNC(=N)N)NC(=O)CSC[C@@H](C(=O)N[C@@H](CCN)C(N)=O)NC(=O)[C@H](CCC(=O)O)NC(=O)[C@H](C(C)C)NC(=O)[C@H](CC3CCCCC3)NC(=O)[C@H](CCN)NC(=O)[C@@H](CC(C)C)NC(=O)[C@H](CCCN)NC(=O)[C@H](Cc3ccc(OCc4cn(CCOCCOCCOCCOCCOCCOCCOCCOCCOCCOCCOCCNC(=O)CC[C@H](NC(=O)CCCCCCCCCCCCCCCCC(=O)O)C(=O)O)nn4)cc3)NC(=O)[C@H](Cc3ccc(-c4ccccc4)cc3)NC(=O)[C@H](Cc3ccc(OCC(=O)O)cc3)NC2=O)c1` [Compound 1002] ({CH2CO}-RY(Carboxymethyl)D[Phe(3-Me)]Y(Carboxymethyl)[Bip]Y(X1)[Orn][dL][Dab][Cha]VEC[Dab]-NH2; thioether N-14), the pIC50 was 6.85.

For the compound `Cc1cccc(C[C@@H]2NC(=O)[C@H](CC(=O)O)NC(=O)[C@H](Cc3ccc(OCC(=O)O)cc3)NC(=O)[C@H](CN)NC(=O)CSC[C@@H](C(=O)N[C@@H](CCN)C(N)=O)NC(=O)[C@H](CCC(=O)O)NC(=O)[C@H](C(C)C)NC(=O)[C@H](CC3CCCCC3)NC(=O)[C@H](CCN)NC(=O)[C@@H](CC(C)C)NC(=O)[C@H](CCCN)NC(=O)[C@H](Cc3ccc(OCC(=O)O)cc3)NC(=O)[C@H](Cc3ccc(-c4ccccc4)cc3)NC(=O)[C@H](Cc3ccc(OCc4cn(CCOCCOCCOCCOCCOCCOCCOCCOCCOCCOCCOCCNC(=O)CC[C@H](NC(=O)CCCCCCCCCCCCCCCCC(=O)O)C(=O)O)nn4)cc3)NC2=O)c1` [Compound 1004] ({CH2CO}-[Dap]Y(Carboxymethyl)D[Phe(3-Me)]Y(X1)[Bip]Y(Carboxymethyl)[Orn][dL][Dab][Cha]VEC[Dab]-NH2; thioether N-14), the pIC50 was 6.96.

Turning to `Cc1cccc(C[C@@H]2NC(=O)[C@H](CC(=O)O)NC(=O)[C@H](Cc3ccc(OCC(=O)O)cc3)NC(=O)[C@H](CCCNC(=N)N)NC(=O)CSC[C@@H](C(=O)N[C@@H](CCN)C(N)=O)NC(=O)[C@H](CCC(=O)O)NC(=O)[C@H](C(C)C)NC(=O)[C@H](CC3CCCCC3)NC(=O)[C@H](CCN)NC(=O)[C@@H](CC(C)C)NC(=O)[C@H](CCCN)NC(=O)[C@H](Cc3ccc(OCC(=O)O)cc3)NC(=O)[C@H](Cc3ccc(-c4ccccc4)cc3)NC(=O)[C@H](Cc3ccc(OCc4cn(CCOCCOCCOCCOCCOCCOCCOCCOCCOCCOCCOCCNC(=O)CC[C@H](NC(=O)CCCCCCCCCCCCCCCCC(=O)O)C(=O)O)nn4)cc3)NC2=O)c1` [Compound 1005] ({CH2CO}-RY(Carboxymethyl)D[Phe(3-Me)]Y(X1)[Bip]Y(Carboxymethyl)[Orn][dL][Dab][Cha]VEC[Dab]-NH2; thioether N-14), the pIC50 was 7.41.

Regarding `Cc1cccc(C[C@@H]2NC(=O)[C@H](CC(=O)O)NC(=O)[C@H](Cc3ccc(OCC(=O)O)cc3)NC(=O)[C@H](Cc3c[nH]cn3)NC(=O)CSC[C@@H](C(=O)N[C@@H](CCN)C(N)=O)NC(=O)[C@H](CCC(=O)O)NC(=O)[C@H](C(C)C)NC(=O)[C@H](CC3CCCCC3)NC(=O)[C@H](CCN)NC(=O)[C@@H](CC(C)C)NC(=O)[C@H](CCCN)NC(=O)[C@H](Cc3ccc(OCC(=O)O)cc3)NC(=O)[C@H](Cc3ccc(-c4ccccc4)cc3)NC(=O)[C@H](Cc3ccc(OCc4cn(CCOCCOCCOCCOCCOCCOCCOCCOCCOCCOCCOCCNC(=O)CC[C@H](NC(=O)CCCCCCCCCCCCCCCCC(=O)O)C(=O)O)nn4)cc3)NC2=O)c1` [Compound 1006] ({CH2CO}-HY(Carboxymethyl)D[Phe(3-Me)]Y(X1)[Bip]Y(Carboxymethyl)[Orn][dL][Dab][Cha]VEC[Dab]-NH2; thioether N-14), the pIC50 is 7.26.

As to `Cc1cccc(C[C@@H]2NC(=O)[C@H](CC(=O)O)NC(=O)[C@H](Cc3ccc(OCc4cn(CCOCCOCCOCCOCCOCCOCCOCCOCCOCCOCCOCCNC(=O)CC[C@H](NC(=O)CCCCCCCCCCCCCCCCC(=O)O)C(=O)O)nn4)cc3)NC(=O)[C@H](CCN)NC(=O)CSC[C@@H](C(=O)N[C@@H](CCN)C(N)=O)NC(=O)[C@H](CCC(=O)O)NC(=O)[C@H](C(C)C)NC(=O)[C@H](CC3CCCCC3)NC(=O)[C@H](CCN)NC(=O)[C@@H](CC(C)C)NC(=O)[C@H](CCCN)NC(=O)[C@H](Cc3ccc(OCC(=O)O)cc3)NC(=O)[C@H](Cc3ccc(-c4ccccc4)cc3)NC(=O)[C@H](Cc3ccc(OCC(=O)O)cc3)NC2=O)c1` [Compound 1007] ({CH2CO}-[Dab]Y(X1)D[Phe(3-Me)]Y(Carboxymethyl)[Bip]Y(Carboxymethyl)[Orn][dL][Dab][Cha]VEC[Dab]-NH2; thioether N-14), the pIC50 was 6.29.

Take `Cc1cccc(C[C@@H]2NC(=O)[C@H](CC(=O)O)NC(=O)[C@H](Cc3ccc(OCc4cn(CCOCCOCCOCCOCCOCCOCCOCCOCCOCCOCCOCCNC(=O)CC[C@H](NC(=O)CCCCCCCCCCCCCCCCC(=O)O)C(=O)O)nn4)cc3)NC(=O)[C@H](CN)NC(=O)CSC[C@@H](C(=O)N[C@@H](CCN)C(N)=O)NC(=O)[C@H](CCC(=O)O)NC(=O)[C@H](C(C)C)NC(=O)[C@H](CC3CCCCC3)NC(=O)[C@H](CCN)NC(=O)[C@@H](CC(C)C)NC(=O)[C@H](CCCN)NC(=O)[C@H](Cc3ccc(OCC(=O)O)cc3)NC(=O)[C@H](Cc3ccc(-c4ccccc4)cc3)NC(=O)[C@H](Cc3ccc(OCC(=O)O)cc3)NC2=O)c1` [Compound 1008] ({CH2CO}-[Dap]Y(X1)D[Phe(3-Me)]Y(Carboxymethyl)[Bip]Y(Carboxymethyl)[Orn][dL][Dab][Cha]VEC[Dab]-NH2; thioether N-14): the pIC50 was 6.15.

In the case of `Cc1cccc(C[C@@H]2NC(=O)[C@H](CC(=O)O)NC(=O)[C@H](Cc3ccc(OCc4cn(CCOCCOCCOCCOCCOCCOCCOCCOCCOCCOCCOCCNC(=O)CC[C@H](NC(=O)CCCCCCCCCCCCCCCCC(=O)O)C(=O)O)nn4)cc3)NC(=O)[C@H](CCCNC(=N)N)NC(=O)CSC[C@@H](C(=O)N[C@@H](CCN)C(N)=O)NC(=O)[C@H](CCC(=O)O)NC(=O)[C@H](C(C)C)NC(=O)[C@H](CC3CCCCC3)NC(=O)[C@H](CCN)NC(=O)[C@@H](CC(C)C)NC(=O)[C@H](CCCN)NC(=O)[C@H](Cc3ccc(OCC(=O)O)cc3)NC(=O)[C@H](Cc3ccc(-c4ccccc4)cc3)NC(=O)[C@H](Cc3ccc(OCC(=O)O)cc3)NC2=O)c1` [Compound 1009] ({CH2CO}-RY(X1)D[Phe(3-Me)]Y(Carboxymethyl)[Bip]Y(Carboxymethyl)[Orn][dL][Dab][Cha]VEC[Dab]-NH2; thioether N-14), the pIC50 is 6.14.

On to `Cc1cccc(C[C@@H]2NC(=O)[C@H](CC(=O)O)NC(=O)[C@H](Cc3ccc(OCc4cn(CCOCCOCCOCCOCCOCCOCCOCCOCCOCCOCCOCCNC(=O)CC[C@H](NC(=O)CCCCCCCCCCCCCCCCC(=O)O)C(=O)O)nn4)cc3)NC(=O)[C@H](Cc3c[nH]cn3)NC(=O)CSC[C@@H](C(=O)N[C@@H](CCN)C(N)=O)NC(=O)[C@H](CCC(=O)O)NC(=O)[C@H](C(C)C)NC(=O)[C@H](CC3CCCCC3)NC(=O)[C@H](CCN)NC(=O)[C@@H](CC(C)C)NC(=O)[C@H](CCCN)NC(=O)[C@H](Cc3ccc(OCC(=O)O)cc3)NC(=O)[C@H](Cc3ccc(-c4ccccc4)cc3)NC(=O)[C@H](Cc3ccc(OCC(=O)O)cc3)NC2=O)c1` [Compound 1010] ({CH2CO}-HY(X1)D[Phe(3-Me)]Y(Carboxymethyl)[Bip]Y(Carboxymethyl)[Orn][dL][Dab][Cha]VEC[Dab]-NH2; thioether N-14), for which the pIC50 was 6.20.

For `Cc1cccc(C[C@@H]2NC(=O)[C@H](CC(=O)O)NC(=O)[C@H](Cc3ccc(OCC(=O)O)cc3)NC(=O)[C@H](Cc3ccc(OCc4cn(CCOCCOCCOCCOCCOCCOCCOCCOCCOCCOCCOCCNC(=O)CC[C@H](NC(=O)CCCCCCCCCCCCCCCCC(=O)O)C(=O)O)nn4)cc3)NC(=O)CSC[C@@H](C(=O)N[C@@H](CCN)C(N)=O)NC(=O)[C@H](CCC(=O)O)NC(=O)[C@H](C(C)C)NC(=O)[C@H](CC3CCCCC3)NC(=O)[C@H](CCN)NC(=O)[C@@H](CC(C)C)NC(=O)[C@H](CCCN)NC(=O)[C@H](Cc3ccc(OCC(=O)O)cc3)NC(=O)[C@H](Cc3ccc(-c4ccccc4)cc3)NC(=O)[C@H](Cc3ccc(OCC(=O)O)cc3)NC2=O)c1` [Compound 1011] ({CH2CO}-Y(X1)Y(Carboxymethyl)D[Phe(3-Me)]Y(Carboxymethyl)[Bip]Y(Carboxymethyl)[Orn][dL][Dab][Cha]VEC[Dab]-NH2; thioether N-14), the pIC50 is 6.47.

Values taken from patent US20250250299A1, “MACROCYCLIC IMMUNOMODULATORS” (Bristol-Myers Squibb Company, priority 2022, published 2025).
